# Measurements as given in ChEMBL document CHEMBL1201862, “PubChem BioAssay data set” (2004).
# Calls of active or inactive are those of the source.
# How the values were obtained:
# Streptokinase A = molecular target: T1, Streptokinase A (Streptococcus pyogenes serotype M1, UniProt P10520); assay: viability-normalized secreted streptokinase activity reduction – plasminogen activation absorbance, OD405, dose response (AID 1914); type: functional, Streptococcus pyogenes M1 GAS;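 further: secreted streptokinase activity via plasminogen activation per viability signal from cell pellet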
# T1 sequence (P10520 whole entry): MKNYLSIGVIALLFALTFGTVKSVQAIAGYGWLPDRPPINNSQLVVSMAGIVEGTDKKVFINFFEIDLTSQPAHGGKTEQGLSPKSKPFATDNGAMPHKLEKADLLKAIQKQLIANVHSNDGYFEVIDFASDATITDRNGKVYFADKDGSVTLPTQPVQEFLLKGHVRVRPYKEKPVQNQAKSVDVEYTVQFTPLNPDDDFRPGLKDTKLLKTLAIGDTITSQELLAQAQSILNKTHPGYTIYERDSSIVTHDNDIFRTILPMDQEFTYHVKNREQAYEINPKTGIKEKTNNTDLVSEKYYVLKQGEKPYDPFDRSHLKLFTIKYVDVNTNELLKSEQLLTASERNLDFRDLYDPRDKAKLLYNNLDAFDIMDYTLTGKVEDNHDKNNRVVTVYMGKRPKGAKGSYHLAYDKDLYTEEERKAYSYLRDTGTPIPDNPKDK
# cells = type: functional
# [1] = molecular target: Luciferin 4-monooxygenase (Photinus pyralis, UniProt P08659); assay: inhibition of purified Photinus pyralis luciferase – biochemical, luminescence, dose response (AID 1891)
# [2] = Luminescence Cell-Based Dose Confirmation HTS to Identify Inhibitors of Platelet Dense Granule Release. [Related pubchem assays: 1663 (Primary HTS), 1678 (Summary of Project)]; type: functional
# [3] = viability of PTEN-deleted HCT116 cells – cell-based, HCT116 PTEN knockout, dose response (AID 1047); type: functional;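 further: HCT116 colon tumor cells with PTEN knocked out; cells exposed to compound for 60 hours before readout; potency for loss of cell viability measured by luminescence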
# [4] = viability of HCT116 lacking mutant beta-catenin – cell-based, human colon tumor, dose response (AID 1045); type: functional;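 further: HCT116 colon tumor cells with beta catenin knocked out; cells exposed to compound for 60 hours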
# [5] = test system: Streptococcus sp. 'group A'; assay: Streptococcus pyogenes SK(-)GAS viability under kanamycin – luminescence, BacTiterGlo, confirmation, counter-screen for streptokinase expression inhibitor project, dose response (AID 1900); type: functional, organism-based
# Streptococcus = assay: GAS UMAA2166 growth inhibition – luminescence, BacTiterGlo, counter-screen for streptokinase expression inhibitor project, dose response (AID 1915); type: functional, organism-based;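 further: potency for reduction of bacterial viability or growth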
# Large T antigen = Large T antigen (Simian virus 40, UniProt P03070); type: functional, Betapolyomavirus macacae;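 further: Confirmatory-stage PubChem screen for compounds that inhibit SV40 T antigen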
# Cytochrome P450 1A2 = molecular target: T2, Cytochrome P450 1A2 (Homo sapiens, UniProt P05177);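 further: PubChem cytochrome P450 panel assay, CYP1A2 panel member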
# T2 sequence (P05177 whole entry): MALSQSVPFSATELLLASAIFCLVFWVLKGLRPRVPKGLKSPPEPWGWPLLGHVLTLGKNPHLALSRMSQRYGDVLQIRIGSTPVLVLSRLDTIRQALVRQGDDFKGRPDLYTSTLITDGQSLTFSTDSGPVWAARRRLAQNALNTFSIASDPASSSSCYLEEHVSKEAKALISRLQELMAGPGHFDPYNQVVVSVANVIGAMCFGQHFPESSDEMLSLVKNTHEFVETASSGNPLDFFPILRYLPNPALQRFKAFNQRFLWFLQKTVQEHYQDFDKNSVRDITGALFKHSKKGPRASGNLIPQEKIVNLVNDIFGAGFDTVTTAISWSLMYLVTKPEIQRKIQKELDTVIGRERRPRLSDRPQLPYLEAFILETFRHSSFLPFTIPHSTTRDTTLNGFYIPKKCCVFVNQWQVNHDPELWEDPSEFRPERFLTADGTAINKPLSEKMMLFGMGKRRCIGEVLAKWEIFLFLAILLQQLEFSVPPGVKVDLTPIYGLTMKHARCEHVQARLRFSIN
# [6] = molecular target: T3, Polyadenylate-binding protein 1 (Homo sapiens, UniProt P11940); assay: MLLE domain peptide-binding blockers, IC50 – biochemical, fluorescence polarization, FITC-PAM2 peptide, dose response (AID 602259); type: functional; conditions: read-out: IC50_Mean
# Cytochrome P450 2C9 = Cytochrome P450 2C9 (Homo sapiens, UniProt P11712)
# [7] = molecular target: T3, Polyadenylate-binding protein 1; assay: MLLE binding blockers, Cy5 peptide tracer – biochemical, fluorescence polarization, Cy5-PAM2 peptide, secondary, miRNA deadenylation inhibitor project, dose response (AID 602260); type: functional; conditions: read-out: IC50_Mean
# Cytochrome P450 3A4 = Cytochrome P450 3A4 (Homo sapiens, UniProt P08684);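 further: CYP3A4 tested as one member of a cytochrome P450 panel screen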
# [8] = Luminescence Cell-Based Dose Retest to Confirm Inhibitors of Cancer Stem Cells. [Related pubchem assays (depositor defined):AID2717, AID2721]; type: functional; conditions: Homo sapiens
# T3 sequence (P11940 whole entry, the tested form may be a part): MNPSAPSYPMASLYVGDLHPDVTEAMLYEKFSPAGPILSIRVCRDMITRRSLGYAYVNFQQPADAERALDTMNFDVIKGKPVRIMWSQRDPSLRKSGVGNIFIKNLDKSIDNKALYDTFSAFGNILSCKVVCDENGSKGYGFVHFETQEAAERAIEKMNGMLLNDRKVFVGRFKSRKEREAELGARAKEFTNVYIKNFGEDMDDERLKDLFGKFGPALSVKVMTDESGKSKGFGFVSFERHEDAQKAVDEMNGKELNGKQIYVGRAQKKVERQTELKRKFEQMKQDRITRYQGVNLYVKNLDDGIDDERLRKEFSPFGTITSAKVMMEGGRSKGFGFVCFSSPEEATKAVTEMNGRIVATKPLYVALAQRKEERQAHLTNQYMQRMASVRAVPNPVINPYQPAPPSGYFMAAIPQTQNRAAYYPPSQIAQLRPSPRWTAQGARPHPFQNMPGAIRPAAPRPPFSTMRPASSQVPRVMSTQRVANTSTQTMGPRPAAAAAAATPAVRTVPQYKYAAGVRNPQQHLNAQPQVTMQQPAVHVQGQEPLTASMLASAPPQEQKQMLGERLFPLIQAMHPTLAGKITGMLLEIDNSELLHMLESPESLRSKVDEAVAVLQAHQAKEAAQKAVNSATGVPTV
# Sequence of Large T antigen (P03070 whole entry): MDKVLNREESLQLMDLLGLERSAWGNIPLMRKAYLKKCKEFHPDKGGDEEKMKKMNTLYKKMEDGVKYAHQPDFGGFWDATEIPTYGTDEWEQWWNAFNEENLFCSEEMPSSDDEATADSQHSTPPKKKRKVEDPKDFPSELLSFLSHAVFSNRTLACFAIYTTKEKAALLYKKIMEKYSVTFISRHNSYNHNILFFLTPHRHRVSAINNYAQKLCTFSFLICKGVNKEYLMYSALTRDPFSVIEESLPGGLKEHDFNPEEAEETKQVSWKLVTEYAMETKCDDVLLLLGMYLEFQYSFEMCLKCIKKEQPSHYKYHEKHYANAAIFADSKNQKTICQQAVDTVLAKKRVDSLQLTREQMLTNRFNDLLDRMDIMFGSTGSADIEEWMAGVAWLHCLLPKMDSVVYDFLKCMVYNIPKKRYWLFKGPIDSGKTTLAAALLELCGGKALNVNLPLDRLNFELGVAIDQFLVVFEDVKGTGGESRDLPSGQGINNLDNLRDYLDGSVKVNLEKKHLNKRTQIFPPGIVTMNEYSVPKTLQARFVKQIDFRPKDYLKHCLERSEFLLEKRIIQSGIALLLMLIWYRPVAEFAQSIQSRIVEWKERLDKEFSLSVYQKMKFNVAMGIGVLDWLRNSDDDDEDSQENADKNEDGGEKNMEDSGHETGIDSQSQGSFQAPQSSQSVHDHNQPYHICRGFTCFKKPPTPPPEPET
# Sequence of Luciferin 4-monooxygenase (P08659 whole entry): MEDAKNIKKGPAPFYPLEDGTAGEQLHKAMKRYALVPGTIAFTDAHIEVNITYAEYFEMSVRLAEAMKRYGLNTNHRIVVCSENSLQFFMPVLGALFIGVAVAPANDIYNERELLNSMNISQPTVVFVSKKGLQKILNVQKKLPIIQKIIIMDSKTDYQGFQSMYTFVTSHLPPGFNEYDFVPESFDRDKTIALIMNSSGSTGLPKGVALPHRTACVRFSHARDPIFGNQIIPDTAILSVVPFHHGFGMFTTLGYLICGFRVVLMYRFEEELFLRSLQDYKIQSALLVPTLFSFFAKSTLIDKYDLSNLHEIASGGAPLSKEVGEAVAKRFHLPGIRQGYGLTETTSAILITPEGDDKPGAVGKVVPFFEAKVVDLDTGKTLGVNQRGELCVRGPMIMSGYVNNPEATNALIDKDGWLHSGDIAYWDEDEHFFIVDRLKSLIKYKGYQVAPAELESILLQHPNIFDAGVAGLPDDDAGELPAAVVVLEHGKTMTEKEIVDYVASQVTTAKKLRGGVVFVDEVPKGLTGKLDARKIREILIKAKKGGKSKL
# Sequence of Cytochrome P450 3A4 (P08684 whole entry): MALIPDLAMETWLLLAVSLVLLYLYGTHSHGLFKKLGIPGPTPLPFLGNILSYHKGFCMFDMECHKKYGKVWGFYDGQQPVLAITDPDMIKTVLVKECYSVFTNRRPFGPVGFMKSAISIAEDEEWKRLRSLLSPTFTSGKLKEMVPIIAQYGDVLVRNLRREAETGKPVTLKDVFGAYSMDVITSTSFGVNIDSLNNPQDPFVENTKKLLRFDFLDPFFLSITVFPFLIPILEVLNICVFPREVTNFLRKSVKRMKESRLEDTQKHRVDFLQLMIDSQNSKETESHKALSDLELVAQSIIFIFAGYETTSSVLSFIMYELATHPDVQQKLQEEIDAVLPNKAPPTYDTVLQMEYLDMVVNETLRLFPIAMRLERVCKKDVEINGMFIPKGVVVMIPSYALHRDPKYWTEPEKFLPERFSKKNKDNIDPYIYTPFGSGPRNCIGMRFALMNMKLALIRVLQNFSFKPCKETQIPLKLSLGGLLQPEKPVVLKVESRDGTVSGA
# Sequence of Cytochrome P450 2C9 (P11712 whole entry): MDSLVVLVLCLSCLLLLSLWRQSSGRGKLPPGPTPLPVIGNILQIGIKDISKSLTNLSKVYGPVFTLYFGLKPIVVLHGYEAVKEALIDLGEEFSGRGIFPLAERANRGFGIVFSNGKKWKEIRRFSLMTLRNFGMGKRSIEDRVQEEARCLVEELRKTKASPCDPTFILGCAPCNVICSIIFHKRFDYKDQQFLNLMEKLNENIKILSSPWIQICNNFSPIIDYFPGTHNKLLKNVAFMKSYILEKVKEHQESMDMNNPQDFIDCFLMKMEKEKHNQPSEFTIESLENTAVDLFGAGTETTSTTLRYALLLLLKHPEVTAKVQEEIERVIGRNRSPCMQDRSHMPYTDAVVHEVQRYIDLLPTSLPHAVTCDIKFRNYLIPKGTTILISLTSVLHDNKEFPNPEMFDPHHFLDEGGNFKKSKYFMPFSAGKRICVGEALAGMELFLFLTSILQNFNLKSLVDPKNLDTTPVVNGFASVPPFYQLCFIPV
smiles,measurement,setting,value
COc1ccc(C2=NOC(CNC(N)=S)C2)cc1 (stereo unspecified),EC50,Streptokinase A,> 150 µM (not active)
Cc1cc(OCC(=O)Nc2ccncc2)ccc1Br,IC50,cells,> 50 µM (active)
COc1ccc(N/C=C/C(=O)c2ccccc2)cc1,EC50,[1],0.863 µM (active)
same,EC50,[2],< 0.701 µM (active)
CCCC(=O)NC(Nc1cc(C(F)(F)F)ccc1Cl)C(Cl)(Cl)Cl (stereo unspecified),EC50,[3],25.5 µM (active)
same,EC50,[4],33.6 µM (active)
COc1ccc(C(C)=O)cc1COc1cc(C)c(Cl)c(C)c1,EC50,Streptokinase A,> 150 µM (not active)
same,EC50,[5],> 150 µM (not active)
same,EC50,Streptococcus,> 150 µM (not active)
O=C(CCn1c(=O)oc2cc(Cl)ccc21)Nc1ccc(O)cc1,IC50,Large T antigen,25.2 µM (active)
Cc1ccc(S(=O)(=O)CNC(=S)c2ccc3ccccc3c2)cc1,EC50,Streptokinase A,> 150 µM (not active)
COC(=O)c1cc(-c2ccc(OC)cc2F)nc2nc(SC)nc(O)c12,EC50,Streptokinase A,> 150 µM (not active)
same,EC50,[5],8.08 µM (active)
same,EC50,Streptococcus,23.3 µM (active)
CCOC(=O)N1CCN(C(=O)CSCc2nc(-c3ccccc3F)oc2C)CC1,AC50,Cytochrome P450 1A2,12.6 µM (inconclusive)
same,IC50,[6],> 66 µM (inactive)
same,AC50,Cytochrome P450 2C9,14.1 µM (inconclusive)
same,IC50,[7],> 66 µM (inactive)
same,AC50,Cytochrome P450 3A4,25.1 µM (inconclusive)
O=C(Cc1ccccc1)Nc1cccc(NC(=O)c2ccccc2)c1,AC50,[8],7.49 µM (active)
COc1ccc(NC(=O)c2ccc(-c3ccc([N+](=O)[O-])cc3)o2)cc1OC,IC50,cells,> 50 µM (active)
COc1ccc(CNC(=O)c2ccccc2NC(=O)C2=CSCCO2)c(OC)c1,EC50,[1],> 112 µM (not active)
same,EC50,[2],15.7 µM (active)
CC(=O)Nc1ccc(-c2csc(NC(=O)Cc3cccc(F)c3)n2)cc1,AC50,[8],1.29 µM (active)
Nc1ccc(Nc2nc3ccccc3[nH]2)cc1,IC50,Large T antigen,7.8 µM (active)
CCOc1ccc(CN2CCN(CC(O)Cn3c4ccccc4c4ccccc43)CC2)cc1 (stereo unspecified),EC50,[3],9.94 µM (active)
same,EC50,[4],9.01 µM (active)
O=c1c2ccccc2nc(/C=C/c2ccc(Br)cc2)n1CCO,AC50,[8],10.5 µM (active)
COc1ccc2c(c1OC)C(=O)N1C2SC[C@H]1C(=O)NC1CCCC1 (stereo partly specified),IC50,[6],> 66 µM (inactive)
same,IC50,[7],> 66 µM (inactive)
COC(=O)c1ccc(/C=C/c2c(-c3ccc(OC)cc3)sc3ccccc23)cc1,AC50,[8],3.79 µM (active)
O=C(NC(=S)Nc1cccnc1)c1cccc(Cl)c1,IC50,[6],> 66 µM (inactive)
same,IC50,[7],> 66 µM (inactive)
CC1=NC2=C(C(=O)CCC2)C(c2cc3c(cc2Br)OCO3)/C1=C(\O)OCCOC(C)C (stereo unspecified),IC50,[6],> 66 µM (inactive)
same,IC50,[7],> 66 µM (inactive)
COc1cc(/C(C)=N/NC(=O)CSc2nc3ccccc3[nH]2)ccc1O,IC50,Large T antigen,22.9 µM (active)
C/C(CC(=O)Nc1ccc(N(C)C)cc1)=N\NC(=O)c1ccc(Cl)cc1Cl,IC50,Large T antigen,9.26 µM (active)
Cc1ccc(NC(=O)CO/N=C/c2ccccc2C)c(C)c1,IC50,cells,50 µM (active)
O=C1c2ccccc2C2=Nc3ccccc3SC(c3ccccc3F)C12 (stereo unspecified),EC50,Streptokinase A,4.91 µM (active)
same,EC50,[5],8.24 µM (active)
same,EC50,Streptococcus,12.7 µM (active)
same,AC50,Cytochrome P450 3A4,0.355 µM (inconclusive)
O=C(NCCc1c[nH]c2ccccc12)C(=O)c1c[nH]c2ccccc12,AC50,[8],1.48 µM (active)
CS(=O)(=O)c1ccc([C@@H](O)[C@@H](CO)NC(=O)C(Cl)Cl)cc1 [THIAMPHENICOL],EC50,Streptokinase A,4.02 µM (active)
same,EC50,[5],1.89 µM (active)
same,EC50,Streptococcus,4.55 µM (active)
